The record followed here is paper PMC12228687, “Harnessing protein language model for structure-based discovery of highly efficient and robust PET hydrolases” (Nature Communications, 2025).

The assay concerns the target T1, FastPETase (mutant derived from IsPETase) (Pseudideonella sakaiensis, UniProt A0A0K8P6T7, S121E/D186H/R224Q/N233K/R280A, form not given).
T1 construct: gene ISF6_4831; engineered variant FastPETase; construct not described in the main text
Nature of the assay: p-nitrophenol release at […] nm, Michaelis-Menten nonlinear fit. Format: biochemical. To be noted: 10 mM potassium phosphate pH 8.0 (stock buffer), 50 °C, 3 min, 0.5 µg/mL enzyme, 0.2-1.8 mM pNPB.

T1 sequence (A0A0K8P6T7 28-290 S121E/D186H/R224Q/N233K/R280A, form open): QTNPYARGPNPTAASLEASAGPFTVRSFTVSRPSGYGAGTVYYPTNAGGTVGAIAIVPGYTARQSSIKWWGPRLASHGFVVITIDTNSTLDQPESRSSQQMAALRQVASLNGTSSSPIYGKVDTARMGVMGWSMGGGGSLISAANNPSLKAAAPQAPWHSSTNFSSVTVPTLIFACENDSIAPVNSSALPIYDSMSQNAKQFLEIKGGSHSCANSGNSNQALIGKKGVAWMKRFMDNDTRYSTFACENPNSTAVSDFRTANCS

For orientation: Km means the concentration of substrate that gives half-maximal velocity. As to `CCCC(=O)Oc1ccc([N+](=O)[O-])cc1` [p-nitrophenyl butyrate], the Michaelis-Menten constant (Km) worked out at 1570 ± 416 µM.
